These results are taken from paper PMC8510344, “Bile-Acid-Appended Triazolyl Aryl Ketones: Design, Synthesis, In Vitro Anticancer Activity and Pharmacokinetics in Rats” (Molecules, 2021).

By melting point is commonly meant the temperature, or range, at which the solid turns liquid. Usually viability stands for a per cent measure of how many cells are alive, often set against a control. A word on the IC50: it is the concentration that gives 50% inhibition.

The test system of series [1] is MCF-7 (human breast adenocarcinoma) cells. Kind of series: MTT cytotoxicity assay, MCF-7. It counts as cell-based. Particulars: Homo sapiens, MCF7, 10 µM, 48 h exposure, read-out: % Cell Viability at 10 µM MCF-7. The protocol:
(§1) The cytotoxicity activity of all the conjugates (6aa–6df) was evaluated in vitro by MTT assay against two different breast cancer cell lines 4T1 (murine) and MCF-7 (human) and HEK 293 (human) as normal cell line. DTX was used as positive control. Cells were grown in DMEM supplemented with 10% FBS and 1% antibiotic solution and incubated at 5% CO2 and 37 °C for 24 h. The stock solutions of all the conjugates were prepared in DMSO and diluted for further use. Briefly, 5 × 10^3 cells/well were seeded in 96-well cell culture plates and allowed to adhere for 24 h. Cell inhibition (%) was determined after 48 h exposure to the compounds at 1–25 μM concentration. After 48 h, MTT assay was performed and the yellow tetrazolium salt (MTT) was reduced in metabolically active cells to form insoluble purple formazan crystals, which were solubilized by the addition of DMSO. The optical density (OD) was recorded at 560 nm and 630 nm as reference wavelength. Percentage cell inhibition was determined by comparison with untreated cells.
(In general: Tetrazolium assays rely on reduction of a dye to a coloured formazan, in cell work by metabolically active cells.)

Another series has as its system 4T1 cells. The series is described as follows: Annexin V/PI apoptosis assay by flow cytometry, 4T1. The class given is cell-based, mouse. To be noted: 6af at 12.84 µM, 6cf at 8.76 µM (respective IC50), 48 h. The protocol:
(§2) The extent of apoptosis induced by compounds 6af and 6cf in MCF-7 and 4T1 cells was quantified by flow cytometry according to the manufacturer’s protocol. Briefly, cells were seeded in a 6-well plate at a cell density of 1 × 10^6 cells/well. After 24 h, the media was discarded and cells were treated with fresh media containing compounds 6af and 6cf at their respective IC50 concentrations for 48 h. After treatment, cells were trypsinized, harvested in PBS and collected by centrifugation for 5 min at 2000 rpm. Cells were then resuspended in 1X binding buffer and stained with FITC-labeled Annexin V Alexa Fluor 488 (5 μL) and propidium iodide (10 μL). Cells were analyzed using flow cytometer (Beckman Coulter), and data were analyzed with CytExpert software.

In series [2] the test system is 4T1 (mouse mammary carcinoma) cells. Kind of series: MTT cytotoxicity assay, 4T1. It counts as cell-based. To be noted: for IC50: 48 h; for viability at 10 µM: 48 h exposure, read-out: % Cell Viability at 10 µM 4T1. The protocol:
as §1

The nature of series [3]: MTT cytotoxicity assay, normal cell line HEK 293. It counts as cell-based. Particulars: human, HEK 293 cells, HEK 293 normal cells, 48 h exposure. The protocol: as §1
Another series relates to MCF-7 cells. Kind of series: Annexin V/PI apoptosis assay by flow cytometry, MCF-7. The class given is cell-based, human. To be noted: 6af at 2.61 µM, 6cf at 5.71 µM (respective IC50), 48 h. On the procedure: as §2
For series [4], the system named is Human cervix cancer cell line (HeLa). The arrangement: method as in PMID 23884119, PMID 25476168, PMID 30220830, PMID 23584541, PMID 28158265. Particulars: literature example of Figure 1, cited from earlier work.

As to `C[C@H](CCC(=O)OCc1cn(CC(=O)c2ccc(Br)cc2)nn1)C1CCC2C3C(C[C@H](O)[C@@]21C)[C@@]1(C)CC[C@@H](O)CC1C[C@H]3O` (stereo partly drawn) [6af, (1-(2-(4-Bromophenyl)-2-oxoethyl)-1H-1,2,3-triazol-4-yl)methyl (4R)-4-((3R,7R,10S,12S,13R)-3,7,12-trihydroxy-10,13-dimethylhexadecahydro-1H-cyclopenta[a]phenanthren-17-yl)pentanoate], the melting point fell in the range of 159 to 160 °C. The viability at 10 µM in series [1] came out at 26.5%. In the series on 4T1 cells, the “total apoptosis in 4T1 cells” value stood at 19.02%. The same compound showed a 50% inhibitory concentration (IC50) in series [2] of 12.8 ± 1.8 µM. For the same compound, in series [2] (Mus musculus), the viability at 10 µM was determined as 55.9% and the 50% inhibitory concentration (IC50) was under 19 µM. Further, the viability at 48 h, 10 µM in series [3] was over 86%. Also, in the series with MCF-7 cells, the “apoptosis (total) in MCF-7 cells” value is 33.89%.

In turn, `C[C@H](CCC(=O)NCc1cn(CC(=O)c2ccc(F)cc2)nn1)C1CCC2C3C(C[C@H](O)[C@@]21C)[C@@]1(C)CC[C@@H](O)CC1C[C@H]3O` (stereo partly drawn) [6cd, (4R)-N-((1-(2-(4-Fluorophenyl)-2-oxoethyl)-1H-1,2,3-triazol-4-yl)methyl)-4-((3R,7R,10S,12S,13R)-3,7,12-trihydroxy-10,13-dimethylhexadecahydro-1H-cyclopenta[a]phenanthren-17-yl)pentanamide] came in with a melting point of 137 to 138 °C. In addition, the viability at 10 µM in series [1] came to 88.7%. In addition, in series [2] (Mus musculus), the viability at 10 µM came out at 70.7%. Also, the viability at 48 h, 10 µM in series [3] turned out to be 97.5%.

`C[C@H](CCC(=O)NCc1cn(CC(=O)c2ccc(Cl)cc2)nn1)C1CCC2C3C(C[C@H](O)[C@@]21C)[C@@]1(C)CC[C@@H](O)CC1C[C@H]3O` (stereo partly drawn) [6ce, (4R)-N-((1-(2-(4-Chlorophenyl)-2-oxoethyl)-1H-1,2,3-triazol-4-yl)methyl)-4-((3R,7R,10S,12S,13R)-3,7,12-trihydroxy-10,13-dimethylhexadecahydro-1H-cyclopenta[a]phenanthren-17-yl)pentanamide] yielded a melting point of 154 to 155 °C. In addition, the viability at 10 µM in series [1] came to 69.2%. Besides, the viability at 10 µM in series [2] (Mus musculus) is 50.6%. This compound showed a viability at 48 h, 10 µM in series [3] of 92.7%.

Turning to `C[C@H](CCC(=O)NCc1cn(CC(=O)c2ccccc2)nn1)C1CCC2C3CCC4C[C@H](O)CC[C@]4(C)C3C[C@H](O)[C@@]21C` (stereo partly drawn) [6da, (4R)-4-((3R,10S,12S,13R)-3,12-Dihydroxy-10,13-dimethylhexadecahydro-1H-cyclopenta[a]phenanthren-17-yl)-N-((1-(2-oxo-2-phenylethyl)-1H-1,2,3-triazol-4-yl)methyl)pentanamide], the melting point fell in the range of 135 to 136 °C. Further, the viability at 10 µM in series [1] is 91.2%. For the same compound, the viability at 10 µM in series [2] (Mus musculus) stood at 99.6%. Also, the viability at 48 h, 10 µM in series [3] was determined as 97.9%.

`Cc1ccc(C(=O)Cn2cc(CNC(=O)CC[C@@H](C)C3CCC4C5CCC6C[C@H](O)CC[C@]6(C)C5C[C@H](O)[C@@]43C)nn2)cc1` (stereo partly drawn) [6db, (4R)-4-((3R,10S,12S,13R)-3,12-Dihydroxy-10,13-dimethylhexadecahydro-1H-cyclopenta[a]phenanthren-17-yl)-N-((1-(2-oxo-2-(p-tolyl)ethyl)-1H-1,2,3-triazol-4-yl)methyl)pentanamide] came in with a melting point of 112 to 115 °C. In series [1], the viability at 10 µM was found to be 78.7%. Also, the viability at 10 µM in series [2] (Mus musculus) is 53.7%. The same compound had a viability at 48 h, 10 µM in series [3] of 89.4%.

Compound `COc1ccc(C(=O)Cn2cc(CNC(=O)CC[C@@H](C)C3CCC4C5CCC6C[C@H](O)CC[C@]6(C)C5C[C@H](O)[C@@]43C)nn2)cc1` (stereo partly drawn) [6dc, (4R)-4-((3R,10S,12S,13R)-3,12-Dihydroxy-10,13-dimethylhexadecahydro-1H-cyclopenta[a]phenanthren-17-yl)-N-((1-(2-(4-methoxyphenyl)-2-oxoethyl)-1H-1,2,3-triazol-4-yl)methyl)pentanamide] came in with a melting point of 114 to 115 °C. Further, the viability at 10 µM in series [1] was found to be 68.5%. Also, the viability at 10 µM in series [2] (Mus musculus) was found to be 64.9%. Also, the viability at 48 h, 10 µM in series [3] worked out at 86.5%.

`C[C@H](CCC(=O)NCc1cn(CC(=O)c2ccc(F)cc2)nn1)C1CCC2C3CCC4C[C@H](O)CC[C@]4(C)C3C[C@H](O)[C@@]21C` (stereo partly drawn) [6dd, (4R)-4-((3R,10S,12S,13R)-3,12-Dihydroxy-10,13-dimethylhexadecahydro-1H-cyclopenta[a]phenanthren-17-yl)-N-((1-(2-(4-fluorophenyl)-2-oxoethyl)-1H-1,2,3-triazol-4-yl)methyl)pentanamide] returned a melting point of 126 to 127 °C. In addition, the viability at 10 µM in series [1] worked out at 73.8%. The viability at 10 µM in series [2] (Mus musculus) came out at 89.9%. Moreover, the viability at 48 h, 10 µM in series [3] stood at 81.6%.

Regarding `C[C@H](CCC(=O)NCc1cn(CC(=O)c2ccc(Cl)cc2)nn1)C1CCC2C3CCC4C[C@H](O)CC[C@]4(C)C3C[C@H](O)[C@@]21C` (stereo partly drawn) [6de, (4R)-N-((1-(2-(4-Chlorophenyl)-2-oxoethyl)-1H-1,2,3-triazol-4-yl)methyl)-4-((3R,10S,12S,13R)-3,12-dihydroxy-10,13-dimethylhexadecahydro-1H-cyclopenta[a]phenanthren-17-yl)pentanamide], the melting point was 100 to 101 °C. In addition, the viability at 10 µM in series [1] amounted to 86.8%. Also, the viability at 10 µM in series [2] (Mus musculus) was found to be 62.9%. The viability at 48 h, 10 µM in series [3] stood at 90.5%.

The compound `C[C@H](CCC(=O)NCc1cn(CC(=O)c2ccc(Br)cc2)nn1)C1CCC2C3CCC4C[C@H](O)CC[C@]4(C)C3C[C@H](O)[C@@]21C` (stereo partly drawn) [6df, (4R)-N-((1-(2-(4-Bromophenyl)-2-oxoethyl)-1H-1,2,3-triazol-4-yl)methyl)-4-((3R,10S,12S,13R)-3,12-dihydroxy-10,13-dimethylhexadecahydro-1H-cyclopenta[a]phenanthren-17-yl)pentanamide] came in with a melting point of 135 to 136 °C. For the same compound, in series [1], the viability at 10 µM amounted to 86.5%. In series [2] (Mus musculus), the viability at 10 µM stood at 48.4%. This compound returned a viability at 48 h, 10 µM in series [3] of 93.5%.

As for `CC(C)CCCC(C)C1CCC2C3CCC4CC(=O)C(n5cc(-c6ccccn6)nn5)CC4(C)C3CCC12C` (stereo not shown) [III], in series [4], the “% Growth Inhibition at 30 μM HeLa” value was 43.5%.

With `Cc1cccc(-c2cn(CC3CC4C5CC=C6CC(O)CCC6(C)C5CCC4(C)C3O)nn2)c1` (stereo not shown) [II], the “% Growth Inhibition at 30 μM HeLa” value in series [4] was 96.9%.

Consider `COc1ccc2c(c1)CCC1C2CCC2(C)C(O)C(n3cc(-c4ccc(C(C)(C)C)cc4)nn3)CC12` (stereo not shown) [IV], for which, in series [4], the IC50 is 5.08 µM.
